From ChEMBL document CHEMBL4342510, “Design and Synthesis of Benzene Congeners of Resolvin E2, a Proresolving Lipid Mediator, as Its Stable Equivalents” (ACS Med Chem Lett, 2020) come the findings set out here.

Data set [1] relates to Mus musculus. The data set is described as follows: Antiinflammatory activity against BALB/c mouse model of heat-killed Propionibacterium acnes-induced peritonitis assessed as decrease in number of neutrophils at 300 pg, ip administered 12 hrs post Propionibacterium acnes injection and measured after 12 hrs. It counts as functional, organism-based.
The test system of data set [2] is Mus musculus. The data set is described as follows: Antiinflammatory activity against ip dosed BALB/c mouse model of heat-killed Propionibacterium acnes-induced peritonitis assessed as decrease in number of neutrophils administered 12 hrs post Propionibacterium acnes injection and measured after 12 hrs. The class given is functional, organism-based.
Data set [3] can be described thus: Metabolic stability in human liver microsomes assessed as parent compound remaining measured after 6 hrs by HPLC analysis. The class given is ADME, Microsome. The conditions noted are these: read-out: Stability.

The source made the active and inactive calls. No cut-off for these calls is given here.

As to `CC[C@@H](O)/C=C/c1ccccc1C/C=C/[C@@H](O)CCCC(=O)O`, the inhibition entry with Mus musculus [1] is “Active”. The inhibition result in the data set with Mus musculus [2] was “Dose-dependent effect”.
In the case of `CC[C@@H](O)/C=C/C=C\C/C=C\C/C=C\C=C\[C@@H](O)CCCC(=O)O`, in the data set with Mus musculus [1], the inhibition result is “Active”. Moreover, the inhibition result with Mus musculus [2] was “Dose-dependent effect”. Moreover, the remaining at 6 h in data set [3] was less than 40%.
As for `CC[C@@H](O)/C=C/c1ccc(C/C=C/[C@@H](O)CCCC(=O)O)cc1`, the inhibition entry with Mus musculus [1] is “inactive”. The remaining at 6 h in data set [3] was less than 40%.
Regarding `CC[C@@H](O)/C=C/c1cccc(C/C=C/[C@@H](O)CCCC(=O)O)c1`, the inhibition result in the data set on Mus musculus [1] was “inactive”.
